From patent US9393190B2, “Methods for enhancing skin tan and reducing risks of UV skin damage” (DSM IP ASSETS B.V., priority 2009, dated 2016)

Tested on: Normal human melanocytes NHM (HEMn-MP, Clonetics)
Test: Quantification of melanin synthesis in cell culture (total melanin, absorbance at 405 nm)
Format: cell-based
Experimental: Quantification of Melanin Synthesis in Cell Culture:
Normal human melanocytes NHM (HEMn-MP, Clonetics) were seeded in 96 well cell culture plates and grown to sub-confluence for two days in a mixture of M2-Medium (Clonetics) and Medium (Promocell). Culture medium was exchanged with Culture Medium containing Steviol (96%) and melanogenesis progressed for another three days at 37° C. with another medium exchange on day two. Including cell layer and culture supernatant the total melanin was extracted using 1.7M KOH with vigorous shaking at RT. The total melanin content was determined at 405 nm in an absorbance plate reader versus a control (100%)

## C=C1C[C@@]23CC[C@H]4[C@@](C)(CCC[C@@]4(C)C(=O)O)[C@@H]2CC[C@]1(O)C3 [Steviol]
0.25 to 1 micro M
  effect on the production of melanin in human melanocytes: clear dose dependent positive effect
Melanin production in human melanocytes
  potency relative to positive control Glycyrrhizin: about 1000 times
